ChEMBL document CHEMBL1129776, “Design of dual-acting thromboxane antagonist-synthase inhibitors by a mutual prodrug approach” (Bioorg Med Chem Lett, 1996)
Several values for one entry are separate records, joined by “and”; a condition that tells them apart may be missing. Identical values can stand only once.

How the values were obtained:
[1] = target: T1, Thromboxane-A synthase (Homo sapiens) (UniProt P24557); assay: Compound was evaluated for inhibition of TXA2 synthase by measuring collagen stimulated TXB2 production in the blood samples after 2 hr time at a dose of 0.05 mg/kg; assay type: functional, organism-based; design: dose 0.05 mg/kg; conditions: Canis lupus familiaris
T1 sequence (whole entry): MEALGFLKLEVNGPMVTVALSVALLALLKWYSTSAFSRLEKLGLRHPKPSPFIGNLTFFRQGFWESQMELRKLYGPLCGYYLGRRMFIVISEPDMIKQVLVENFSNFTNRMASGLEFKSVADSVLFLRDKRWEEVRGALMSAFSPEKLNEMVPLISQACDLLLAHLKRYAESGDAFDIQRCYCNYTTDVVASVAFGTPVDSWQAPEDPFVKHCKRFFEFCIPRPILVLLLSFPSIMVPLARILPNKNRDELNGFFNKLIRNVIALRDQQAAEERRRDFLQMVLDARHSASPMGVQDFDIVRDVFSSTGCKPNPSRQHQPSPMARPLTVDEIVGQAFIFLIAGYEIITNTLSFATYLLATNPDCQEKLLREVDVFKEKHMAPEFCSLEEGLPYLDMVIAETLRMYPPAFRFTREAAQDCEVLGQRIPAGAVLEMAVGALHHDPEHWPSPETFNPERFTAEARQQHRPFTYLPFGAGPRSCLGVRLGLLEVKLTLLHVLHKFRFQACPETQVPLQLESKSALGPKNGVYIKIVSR

[2] = target: T1, Thromboxane-A synthase (Homo sapiens); assay: Compound was evaluated for inhibition of TXA2 synthase by measuring collagen stimulated TXB2 production in the blood samples after 8 hr time at a dose of 0.05 mg/kg; assay type: functional, organism-based; design: dose 0.05 mg/kg; conditions: Canis lupus familiaris
[3] = system: Canis familiaris; assay: Compound was tested for plasma concentration ratio at 2 hr in conscious dogs at specified time intervals at a dose of 0.05 mg/kg.; assay type: functional, Canis lupus familiaris
[4] = target: T2, Thromboxane-A synthase (Homo sapiens, UniProt P24557); assay: Compound was tested for thromboxane TXA2 synthase inhibitory activity using human platelet
T2 sequence (P24557 whole entry): T1 sequence (whole entry)

[5] = target: T3, Thromboxane A2 receptor (Homo sapiens, UniProt P21731); assay: Thromboxane (TXA2) receptor antagonist activity using human platelet; assay type: functional; conditions: for Kb: read-out: pA2 (converted)
T3 sequence (P21731 whole entry): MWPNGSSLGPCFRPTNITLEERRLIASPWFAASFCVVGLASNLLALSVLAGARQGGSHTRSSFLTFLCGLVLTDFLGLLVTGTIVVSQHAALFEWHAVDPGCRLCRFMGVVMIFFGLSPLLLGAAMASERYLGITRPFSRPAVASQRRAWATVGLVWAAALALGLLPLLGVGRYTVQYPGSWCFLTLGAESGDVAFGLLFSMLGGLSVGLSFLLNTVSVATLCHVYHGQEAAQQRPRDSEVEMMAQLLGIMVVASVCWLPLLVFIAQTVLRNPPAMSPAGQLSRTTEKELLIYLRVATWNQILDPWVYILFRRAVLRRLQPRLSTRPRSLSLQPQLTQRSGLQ

[6] = system: Canis familiaris; assay: Compound was tested for plasma concentration ratio at 8 hr in conscious dogs at specified time intervals at a dose of 0.05 mg/kg.; assay type: functional, Canis lupus familiaris
[7] = system: Canis familiaris; assay: Compound was tested ex vivo for plasma concentration ratio at 8 hr in conscious dogs at specified time intervals at a dose of 0.05 mg/kg.; assay type: functional, Canis lupus familiaris
[8] = system: Canis familiaris; assay: Compound was tested ex vivo for plasma concentration ratio at 2 hr in conscious dogs at specified time intervals at a dose of 0.05 mg/kg.; assay type: functional, Canis lupus familiaris
[9] = system: Canis familiaris; assay: Compound was tested for plasma concentration ratio at 8 hr in conscious dogs at specified time intervals at a dose of 1.0 mg/kg.; assay type: functional, Canis lupus familiaris
[10] = target: T1, Thromboxane-A synthase (Homo sapiens); assay: (§1) Compound was evaluated for inhibition of TXA2 synthase by measuring collagen stimulated TXB2 production in the blood samples after 8 hr time at a dose of 1.0 mg/kg; assay type: functional, organism-based; design: dose 1 mg/kg; conditions: Canis lupus familiaris
[11] = target: T1, Thromboxane-A synthase (Homo sapiens); assay: as §1; assay type: functional, organism-based; design: dose 1 mg/kg; conditions: Canis lupus familiaris; remark: listed apart in the source
[12] = system: Canis familiaris; assay: Compound was tested for plasma concentration ratio at 2 hr in conscious dogs at specified time intervals at a dose of 1.0 mg/kg.; assay type: functional, Canis lupus familiaris
[13] = target: T1, Thromboxane-A synthase (Homo sapiens); assay: Compound was evaluated for inhibition of TXA2 synthase by measuring collagen stimulated TXB2 production in the blood samples after 2 hr time at a dose of 1.0 mg/kg; assay type: functional, organism-based; design: dose 1 mg/kg; conditions: Canis lupus familiaris

Row | SMILES | inhibition [1] [%] | inhibition [2] [%] | IC50 [4] [µM] | Kb [5] [µM] | also measured
1 | N#Cc1ccc([C@H]2OC[C@@H](C/C=C\CCC(=O)Oc3ccccc3OC(=O)CC/C=C\C[C@@H]3CO[C@H](c4ccccc4Cl)O[C@@H]3c3ccccc3O)[C@@H](c3cccnc3)O2)cc1 (stereo in doubt; 16 (-)) [listing 1 of 2 here] |  |  | > 10 | 10 | Ratio ([3]; 0.05 mg/kg): 35; Ratio ([6]; 0.05 mg/kg): 150
2 | N#Cc1ccc([C@H]2OC[C@@H](C/C=C\CCC(=O)NCCCCCCNC(=O)CC/C=C\C[C@@H]3CO[C@H](c4ccc(C#N)cc4)O[C@@H]3c3ccccc3O)[C@@H](c3cccnc3)O2)cc1 |  |  | > 10 | 10 | 
3 | O=C(O)CC/C=C\C[C@@H]1CO[C@H](c2ccccc2Cl)O[C@@H]1c1ccccc1O | > 50 | > 50 | > 10 |  | 
4 | N#Cc1ccc([C@H]2OC[C@@H](C/C=C\CCC(=O)Oc3ccc(OC(=O)CC/C=C\C[C@@H]4CO[C@H](c5ccc(C#N)cc5)O[C@@H]4c4ccccc4O)cc3)[C@@H](c3cccnc3)O2)cc1 |  |  | > 10 | 10 | 
5 | N#Cc1ccc([C@H]2OC[C@@H](C/C=C\CCC(=O)OCCOC(=O)CC/C=C\C[C@@H]3CO[C@H](c4ccc(C#N)cc4)O[C@@H]3c3ccccc3O)[C@@H](c3cccnc3)O2)cc1 |  |  | > 10 | > 10 | 
6 | N#Cc1ccc([C@H]2OC[C@@H](C/C=C\CCC(=O)Oc3ccccc3OC(=O)CC/C=C\C[C@@H]3CO[C@H](c4ccccc4Cl)O[C@@H]3c3ccccc3O)[C@@H](c3cccnc3)O2)cc1 (stereo in doubt; 15) [listing 2 of 2 here] | 54 | 57 |  |  | 
7 | N#Cc1ccc([C@H]2OC[C@@H](C/C=C\CCC(=O)Oc3ccccc3OC(=O)CC/C=C\C[C@@H]3CO[C@H](c4ccccc4Cl)O[C@@H]3c3ccccc3O)[C@@H](c3cccnc3)O2)cc1 (stereo in doubt; 16 (-)) [listing 2 of 2 here] | 31 | 64 |  |  | 

Now from value to molecule, other results behind:

Row | inhibition [1] [%] | inhibition [2] [%] | IC50 [4] [µM] | Kb [5] [µM] | SMILES | also measured
8 | 68 | < 50 | > 10 | 10 | N#Cc1ccc([C@H]2OC[C@@H](C/C=C\CCC(=O)Oc3ccccc3OC(=O)CC/C=C\C[C@@H]3CO[C@H](c4ccc(C#N)cc4)O[C@@H]3c3ccccc3O)[C@@H](c3cccnc3)O2)cc1 | Ratio [3]: 587; Ratio [6]: 283
9 | > 50 | > 50 | > 10 | 0.00501 | N#Cc1ccc([C@H]2OC[C@@H](C/C=C\CCC(=O)O)[C@@H](c3ccccc3O)O2)cc1 | Ratio [7]: 35; Ratio [8]: 60
10 |  |  | > 10 | 10 | N#Cc1ccc([C@H]2OC[C@@H](C/C=C\CCC(=O)NCCNC(=O)CC/C=C\C[C@@H]3CO[C@H](c4ccc(C#N)cc4)O[C@@H]3c3ccccc3O)[C@@H](c3cccnc3)O2)cc1 | 
11 |  |  | > 10 | 10 | N#Cc1ccc([C@H]2OC[C@@H](C/C=C\CCC(=O)OCCCCCCOC(=O)CC/C=C\C[C@@H]3CO[C@H](c4ccc(C#N)cc4)O[C@@H]3c3ccccc3O)[C@@H](c3cccnc3)O2)cc1 | 
12 |  |  | 0.02 | 1.26 | N#Cc1ccc([C@H]2OC[C@@H](C/C=C\CCC(=O)O)[C@@H](c3cccnc3)O2)cc1 | Ratio [9]: 1.3; inhibition [10]: 84%; inhibition [11]: 93%; Ratio [12]: 1.4; inhibition [13]: 97% and 84%
13 |  |  | > 10 |  | N#Cc1ccc([C@H]2OC[C@@H](C/C=C\CCC(=O)Oc3ccccc3OC(=O)CC/C=C\C[C@@H]3CO[C@H](c4ccccc4Cl)O[C@@H]3c3ccccc3O)[C@@H](c3cccnc3)O2)cc1 (stereo in doubt; 15) [listing 1 of 2 here] | Ratio ([3]; 0.05 mg/kg): 140; pA2 [5]: 5; Ratio ([6]; 0.05 mg/kg): 170
